Results reported in PubChem BioAssay (NCI).
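These data come from cells grown in 96-well plates and exposed to compound for 48 hours at five concentrations. TGI denotes the concentration required for complete inhibition of growth.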

Legend:
Experiment in all cases: NCI tumour cell line growth inhibition, 48 h
[1] = system: MALME-3M melanoma
[2] = system: COLO 205 colon
[3] = system: BT-549 breast
[4] = system: SF-539 CNS
[5] = system: SR leukemia
[6] = system: HT29 colon
[7] = system: U251 CNS
[8] = system: UACC-257 melanoma
[9] = system: 786-0 renal
[10] = system: HOP-62 NSCLC
[11] = system: RPMI-8226 leukemia
[12] = system: NCI-H522 lung
[13] = system: SK-MEL-28 melanoma
[14] = system: CCRF-CEM leukemia
[15] = system: SK-MEL-5 melanoma
[16] = system: MOLT-4 leukemia
[17] = system: UACC-62 melanoma
[18] = system: OVCAR-3 ovarian
[19] = system: DU-145 prostate
[20] = system: MCF7 breast
[21] = system: OVCAR-4 ovarian
[22] = system: OVCAR-5 ovarian
[23] = system: HL-60(TB) leukemia
[24] = system: HCT-15 colon
[25] = system: IGROV1 ovarian
[26] = system: K-562 leukemia
[27] = system: HCT-116 colon
[28] = system: NCI-H460 lung
[29] = system: OVCAR-8 ovarian
[30] = system: SF-295 CNS
[31] = system: HS 578T breast
[32] = system: SW-620 colon
[33] = system: ACHN renal
[34] = system: SNB-19 CNS
[35] = system: SF-268 CNS
[36] = system: A498 renal
[37] = system: UO-31 renal
[38] = system: EKVX NSCLC
[39] = system: M14 melanoma
[40] = system: PC-3 prostate
[41] = system: MDA-N
[42] = system: HCC-2998 colon
[43] = system: MDA-MB-435
[44] = system: KM12 colon
[45] = system: SK-MEL-2 melanoma
[46] = system: CAKI-1 renal
[47] = system: A549 NSCLC
[48] = system: LOX IMVI melanoma
[49] = system: NCI/ADR-RES ovarian
[50] = system: TK-10 renal
[51] = system: NCI-H226 lung
[52] = system: MDA-MB-231 breast
[53] = system: SK-OV-3 ovarian
[54] = system: HOP-92 NSCLC
[55] = system: NCI-H23 lung
[56] = system: SN12C renal
[57] = system: SNB-75 CNS
[58] = system: RXF 393 renal

Compound: O=c1cnnc2sc(=S)[nH]n12
- TGI [1]: > 100 µM
- TGI [2]: > 100 µM
- TGI [3]: 64.4 µM
- TGI [4]: > 100 µM
- TGI [5]: 62.3 µM
- TGI [6]: > 100 µM
- TGI [7]: 75.3 µM
- TGI [8]: 78.4 µM
- TGI [9]: 49.8 µM
- TGI [10]: 9.18 µM
- TGI [11]: 29.1 µM
- TGI [12]: 27 µM
- TGI [13]: > 100 µM
- TGI [14]: 12.1 µM
- TGI [15]: 57.9 µM
- TGI [16]: 42.2 µM
- TGI [17]: > 100 µM
- TGI [18]: > 100 µM
- TGI [19]: > 100 µM
- TGI [20]: 39.8 µM
- TGI [21]: 53.4 µM
- TGI [22]: > 100 µM
- TGI [23]: 79.9 µM
- TGI [24]: 57.3 µM
- TGI [25]: 74 µM
- TGI [26]: 36.8 µM
- TGI [27]: > 100 µM
- TGI [28]: > 100 µM
- TGI [29]: 34.3 µM
- TGI [30]: > 100 µM
- TGI [31]: > 100 µM
- TGI [32]: 24.9 µM
- TGI [33]: > 100 µM
- TGI [34]: > 100 µM
- TGI [35]: > 100 µM
- TGI [36]: > 100 µM
- TGI [37]: 52.1 µM
- TGI [38]: > 100 µM
- TGI [39]: > 100 µM
- TGI [40]: > 100 µM
- TGI [41]: > 100 µM
- TGI [42]: > 100 µM
- TGI [43]: > 100 µM
- TGI [44]: > 100 µM
- TGI [45]: > 100 µM
- TGI [46]: 68.2 µM
- TGI [47]: > 100 µM
- TGI [48]: 13.9 µM
- TGI [49]: > 100 µM

Compound: Cc1cc(C)c2ccc(N3CCNCC3)nc2n1
- TGI [1]: > 100 µM
- TGI [2]: > 100 µM
- TGI [3]: > 100 µM
- TGI [4]: > 100 µM
- TGI [5]: > 100 µM
- TGI [6]: > 100 µM
- TGI [7]: > 100 µM
- TGI [8]: > 100 µM
- TGI [9]: > 100 µM
- TGI [10]: > 100 µM
- TGI [50]: > 100 µM
- TGI [11]: > 100 µM
- TGI [12]: > 100 µM
- TGI [51]: > 100 µM
- TGI [52]: > 100 µM
- TGI [53]: > 100 µM
- TGI [13]: > 100 µM
- TGI [14]: > 100 µM
- TGI [16]: > 100 µM
- TGI [17]: > 100 µM
- TGI [18]: > 100 µM
- TGI [19]: > 100 µM
- TGI [20]: > 100 µM
- TGI [21]: > 100 µM
- TGI [22]: > 100 µM
- TGI [54]: > 100 µM
- TGI [23]: > 100 µM
- TGI [24]: > 100 µM
- TGI [25]: > 100 µM
- TGI [26]: > 100 µM
- TGI [27]: > 100 µM
- TGI [28]: > 100 µM
- TGI [29]: > 100 µM
- TGI [30]: > 100 µM
- TGI [31]: > 100 µM
- TGI [32]: > 100 µM
- TGI [33]: > 100 µM
- TGI [34]: > 100 µM
- TGI [35]: > 100 µM
- TGI [37]: > 100 µM
- TGI [38]: > 100 µM
- TGI [55]: > 100 µM
- TGI [39]: > 100 µM
- TGI [56]: > 100 µM
- TGI [40]: > 100 µM
- TGI [41]: > 100 µM
- TGI [42]: > 100 µM
- TGI [43]: > 100 µM
- TGI [44]: > 100 µM
- TGI [57]: > 100 µM
- TGI [45]: > 100 µM
- TGI [46]: > 100 µM
- TGI [47]: > 100 µM
- TGI [48]: > 100 µM
- TGI [49]: > 100 µM

Compound: C(=Nc1ccccc1C1SCCCS1)c1ccccc1
- TGI [1]: > 100 µM
- TGI [2]: > 100 µM
- TGI [3]: > 100 µM
- TGI [4]: > 100 µM
- TGI [6]: > 100 µM
- TGI [7]: > 100 µM
- TGI [8]: > 100 µM
- TGI [9]: > 100 µM
- TGI [10]: > 100 µM
- TGI [50]: > 100 µM
- TGI [11]: > 100 µM
- TGI [12]: > 100 µM
- TGI [51]: > 100 µM
- TGI [52]: > 100 µM
- TGI [53]: > 100 µM
- TGI [13]: > 100 µM
- TGI [14]: > 100 µM
- TGI [15]: > 100 µM
- TGI [16]: > 100 µM
- TGI [17]: > 100 µM
- TGI [18]: > 100 µM
- TGI [19]: > 100 µM
- TGI [20]: > 100 µM
- TGI [21]: > 100 µM
- TGI [22]: > 100 µM
- TGI [54]: > 100 µM
- TGI [23]: > 100 µM
- TGI [24]: > 100 µM
- TGI [25]: > 100 µM
- TGI [26]: > 100 µM
- TGI [27]: > 100 µM
- TGI [28]: > 100 µM
- TGI [29]: > 100 µM
- TGI [30]: > 100 µM
- TGI [31]: > 100 µM
- TGI [32]: > 100 µM
- TGI [33]: > 100 µM
- TGI [34]: > 100 µM
- TGI [35]: > 100 µM
- TGI [36]: > 100 µM
- TGI [37]: > 100 µM
- TGI [38]: > 100 µM
- TGI [55]: > 100 µM
- TGI [39]: > 100 µM
- TGI [56]: > 100 µM
- TGI [40]: > 100 µM
- TGI [41]: > 100 µM
- TGI [42]: > 100 µM
- TGI [43]: > 100 µM
- TGI [44]: > 100 µM
- TGI [57]: > 100 µM
- TGI [45]: > 100 µM
- TGI [46]: > 100 µM
- TGI [47]: > 100 µM
- TGI [58]: > 100 µM
- TGI [48]: > 100 µM
- TGI [49]: > 100 µM
